≈ marks a conversion by molar mass, not a printed value. Where “and” joins values, the source holds several entries; their conditions need not be identical. Equal values may be shown once.
Key:
[1] = test system: B. cinerea (isolated from grapes); assay: In vitro antifungal activity, broth microdilution (MIC100); type: cell-based, Botrytis cinerea; conditions: B. cinerea
Experimental: (§1) Fungal growth was assessed at six concentrations (3.1–100 μg/mL), using enriched Czapek broth in the presence of triazole 1-8 (Fig. 2). Each treatment was carried out in triplicate. The Minimum Inhibitory Concentration (MIC100) was determined and was defined as the minimum concentration required to inhibit the complete fungal growth inhibition under the conditions of the assay. Triadimefon (TDM) and cyproconazole (CPZ) were used as positive control. In order to evaluate the efficacy of the new compounds to control fungi affecting vineyards, imperfect fungi isolated from infected grapes from the province of San Juan in Argentina were employed. Significant differences were determined by t-Student hypothesis test p, at 95% confidence. In general, moderate to good activity was observed compared to the reference compounds as well as some selectivity against microorganisms.
(§2) The imperfect fungi used for the assays included Botrytis cinerea isolated from grapevine samples, Aspergillus fumigatus (ATTC 26934), A. niger (ATCC 9029), A. ustus (PN-S4), A. japonicus (M15C), A. terreus (M16C) and Fusarium oxysporum (M15-Pa) isolated from soil samples from the province of San Juan, Argentina. The microorganisms were grown on Czapek-yeast extract agar (CYA) prepared with yeast extract, K2HPO4, saccharose, agar, distilled water and enriched with a solution of mineral salts (NaNO3, KCl, MgSO4.7H2O and FeSO4.7 H2O). Inocula were adjusted to 1–5 × 10^4 colony forming units (CFU/ mL).
(§3) The minimum inhibitory concentration (MIC) of each compound was evaluated using broth microdilution techniques in 96-well microtiter plates according to the guidelines of the National Committee for Clinical Laboratory Standards for filamentous fungi M 38 A. The starting inoculum was 1–5 × 10^4 CFU/mL in accordance with the Clinical and Laboratory Standards Institute (CLSI, formerly the National Committee for Clinical Laboratory Standards [NCCLS]) (M27-A3 document for yeasts, and M38-A2 document for filamentous fungi).
(§4) Microtiter plates were incubated at 30 °C for Aspergillus and Fusarium, and 22 °C for B. cinerea in a moist and dark chamber. MIC values were recorded after 48 h for Aspergillus and Fusarium spp., and after 72 h for B. cinerea, according to the fungal growth control. TDM and CPZ were used as positive controls (12.5–50 μg/mL). Stock solutions were two-fold diluted with RPMI from 1000 to 0.98 μg/mL (final volume equal to 100 μL), and a final DMSO concentration ≤ 1%. An inoculum suspension (100 μL) was added to each well with the exception of the sterility control. Endpoints were defined as the lowest compound concentration resulting in total growth inhibition (MIC100) compared to the growth in control wells. MICs values ≤ 50 μg/mL were considered of interest. The assay was carried out in triplicate.

[2] = test system: Aspergillus fumigatus (ATTC 26934); assay: as above; type: cell-based; conditions: A. fumigatus, 30 °C, 48 h, total growth inhibition
Experimental: as §1, §2, §3, §4

[3] = test system: Fusarium oxysporum (M15-Pa); assay: as above; type: cell-based; conditions: 30 °C, 48 h, total growth inhibition
Experimental: as §1, §2, §3, §4

A. japonicus (M15C) = assay: as above; type: cell-based, Aspergillus japonicus; conditions: 48 h; for Fungicidal activity MIC100, AJ: A. japonicus, 30 °C, total growth inhibition
Experimental: as §1, §2, §3, §4

A. niger (ATCC 9029) = assay: as above; type: cell-based, Aspergillus niger; conditions: 48 h, total growth inhibition; for Fungicidal activity MIC100, AN: 30 °C
Experimental: as §1, §2, §3, §4

A. terreus (M16C) = assay: as above; type: cell-based, Aspergillus terreus; conditions: 48 h; for Fungicidal activity MIC100, AT: A. terreus, 30 °C, total growth inhibition
Experimental: as §1, §2, §3, §4

A. ustus (PN-S4) = assay: as above; type: cell-based, Aspergillus ustus; conditions: 30 °C, 48 h, total growth inhibition
Experimental: as §1, §2, §3, §4

[4] = Cytotoxicity, neutral red uptake assay; type: cell-based, human; conditions: human
Experimental: (§5) The cytotoxic effect of the compounds, expressed as cell viability, was assessed on a permanent fibroblast cell line derived from human lung (MRC-5) (ATCC CCL-171). MRC-5 fibroblasts were grown as monolayers in minimum essential Eagle medium (MEM) with Earle’s salts, 2 mM l-glutamine and 2.2 g/L sodium bicarbonate, supplemented with 10% heat inactivated fetal bovine serum (FBS), 100 IU/mL penicillin and 100 µg/mL streptomycin in a humidified incubator with 5% CO2 in the air at 37 °C. Cell passage was maintained between 10 and 16. The medium was changed every 2 days.
(§6) Confluent cultures of MRC-5 fibroblasts were treated with medium containing the compounds at concentrations ranging from 0 to 1000 µM. For comparison purposes, the commercial antifungals CPZ and TDM were used as references, the products were first dissolved in DMSO and then in MEM, supplemented with 2% FBS. The final content of DMSO in the test medium and controls was 1%. Cells were exposed for 24 h to the test medium with or without the compound (control). Each concentration was tested in quadruplicate together with the control, and repeated three times in separate experiments. At the end of the incubation, the neutral red uptake (NRU) assay was carried out. To calculate the IC50 values (concentration that produces a 50% inhibitory effect on the evaluated parameter), the results were transformed to percentage of controls and the IC50 values were graphically obtained from the dose–response curves.

B. cinerea = assay: In vivo antifungal activity on infected grapes under greenhouse conditions; design: species or system Botrytis cinerea on Vitis vinifera grapes; conditions: 7 days; for Efficacy (preventive rate) against B. cinerea on grapes: 2.5 µg/mL; for Efficacy (control effectiveness) against B. cinerea on grapes: 12.5 μg/mL
Experimental: The potential usefulness of compound 4 against B. cinerea was assessed under greenhouse conditions using infected grapes (in vivo), at 7 days of exposure. The compound was evaluated at 2.5 μg/mL and 12.5 μg/mL, CPZ was used as positive control (at 12.5 μg/mL). […] The blank control (untreated grapes) was completely affected by B cinerea (100% incidence) (Fig. 4).
The in vivo activity was determined on the Vitis vinifera grapes inoculated with a Botrytis cinerea conidia suspension. Appropriate amounts of the tested compounds were dissolved in DMSO and then suspended in the distilled water (DMSO concentration < 2%).
Healthy grapes, previously washed with a diluted solution of sodium hypochlorite, were punctured with 100 ⎧L of a solution of compound 4 (concentration of 12.5 ⎧g/mL and 2.5 ⎧g/mL) and evaporated at room temperature (~ 25 °C) during 24 h to favour the penetration of the compound. The same procedure was carried out with CPZ and the control blank (< 2% DMSO solution). The grapes epidermis was punctured with a sterile inoculation needle (Ø, 4.5 mm), 200 µL of the pathogen was inoculated at a concentration of 5.10^4 UFC/mL. The fruits were incubated at 20 °C to favour fungal growth, and fungal growth was assessed 7 days later. CPZ was used as positive control under the same conditions. The control effectiveness of the target compound was calculated as (1 − c/d) × 100, where c is the diameter of the treatment and d is the diameter of the blank control (˂ 2% DMSO solution).

B. cinerea hyphae = assay: Effect on B. cinerea hyphal morphology (optical microscopy); type: cell-based, Botrytis cinerea; conditions: 12.5 μg/mL
Experimental: Changes in the hyphae morphology of B. cinerea treated with compound 4 were observed using optical microscopy.
The same procedure was carried out with CPZ and blank control (< 2% DMSO solution).

[5] = test system: human lung fibroblasts MRC-5; assay: Cytotoxicity, neutral red uptake assay; type: cell-based; conditions: MRC-5 fibroblasts, 24 h exposure, neutral red uptake; ± SD; read-out: Cytotoxicity IC50
Experimental: as §5, §6

[6] = 22 °C, 72 h, total growth inhibition

Compound	Fungicidal activity MIC100, BC [1, 6]	MIC100 (complete growth inhibition) ([1]; Botrytis cinerea, 22 °C, 72 h, total growth inhibition, read-out: Fungicidal activity MIC100, BC)	MIC ([1]; Botrytis cinerea, molar conversion of the µg/mL value, read-out: MIC100 against B. cinerea expressed)	Fungicidal activity MIC100, AF [2]	Minimum inhibitory concentration (MIC100) ([2]; Aspergillus fumigatus, read-out: Fungicidal activity MIC100, AF)	MIC100 (minimum concentration for complete growth inhibition) ([3]; Fusarium oxysporum, F. oxysporum, read-out: Fungicidal activity MIC100, F)	MIC (A. japonicus (M15C); read-out: Fungicidal activity MIC100, AJ)	Fungicidal activity MIC100, AJ (A. japonicus (M15C))	Fungicidal activity MIC100, AN (A. niger (ATCC 9029))	MIC100 (complete growth inhibition) (A. niger (ATCC 9029); Aspergillus niger, ATCC9029, 30 °C, read-out: Fungicidal activity MIC100, AN)	Fungicidal activity MIC100, AT (A. terreus (M16C))	MIC100 (complete growth inhibition) (A. terreus (M16C); Aspergillus terreus, read-out: Fungicidal activity MIC100, AT, A. terreus, 30 °C, total growth inhibition)	Fungicidal activity MIC100, AU (A. ustus (PN-S4))	MIC100 (complete growth inhibition) (A. ustus (PN-S4); Aspergillus ustus, read-out: Fungicidal activity MIC100, AU)	IC50 at 24 h [4]	Efficacy (preventive rate) against B. cinerea on grapes (B. cinerea)	Efficacy (control effectiveness) against B. cinerea on grapes (B. cinerea)	Hyphal morphology of B. cinerea (B. cinerea hyphae)	Fungicidal activity MIC100, F [3]	IC50 [5]
CC(C1CC1)C(O)(Cn1cncn1)c1ccc(-c2ccc(F)cc2)cc1 (stereo not shown) [Compound 4, 3-Cyclopropyl-2-(4’-fluorobiphenyl-4-yl)-1-(1H-1,2,4-triazol1-yl)butan-2-ol]	12.5 ± 0.9 µg/mL	12.5 µg/mL (≈ 35.6 µM)	35.5 µM (≈ 12.5 µg/mL)	12.5 ± 0.8 µg/mL	12.5 µg/mL (≈ 35.6 µM)	≥ 100 µg/mL	15 µg/mL (≈ 42.7 µM)	15 ± 0.7 µg/mL	10 ± 0.5 µg/mL	10 µg/mL (≈ 28.5 µM)	10 ± 0.4 µg/mL	10 µg/mL (≈ 28.5 µM)	14 ± 0.7 µg/mL	14 µg/mL (≈ 39.8 µM)	61.1 ± 3.7 µM	50.6%	100%	morphological alterations, including irregular hyphae, variable diameter and the presence of internal vacuoles	–	–
1-(4-chlorophenyl)-3-cyclopropyl-2-(1H-1,2,4-triazol-1-yl)butan-1-ol [CPZ, reference compound]	12.5 ± 0.8 µg/mL	–	–	25 µg/mL and 25 ± 1.4 µg/mL	–	–	–	25 ± 1.3 µg/mL	25 ± 1.5 µg/mL	–	15.0 µg/mL and 15 ± 0.9 µg/mL	–	15 ± 0.7 µg/mL	–	–	38.3%	75.3%	–	≥ 100 µg/mL	267 ± 18.7 µM

— publication PMC8907375, “Arylated analogues of cypronazole: fungicidal effect and activity on human fibroblasts. Docking analysis and molecular dynamics simulations” (Natural Products and Bioprospecting, 2022)
